Patent publication US9113629B2, “4-amino-6-(4-substituted-phenyl)-picolinates and 6-amino-2-(4-substituted-phenyl)-pyrimidine-4-carboxylates and their use as herbicides” (DOW AGROSCIENCES LLC, priority 2013, dated 2015)
Where two headings read alike, the source gives them in different places.

Experiments:
[1] = tested on: Key Grass and Sedge Weeds as well as Grass Crops; assay: Post-emergent Test II herbicidal activity (Table 6); format: in vivo; conditions: post-emergence, 336 h; for pest or weed control at 140 g/ha: application rate 140 g ai/ha; for pest or weed control at 70 g/ha: application rate 70 g ai/ha
Procedure, shortened: (§1)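 Greenhouse post-emergent assay: seedlings (first/second true leaf) in Metro-Mix 360 were sprayed at 187 L/ha at a top rate plus twofold dilutions down to 1/16×; solvent-blank controls were included. Percent visual injury was read at 14 d.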

[2] = tested on: Key Broadleaf Weed and Crop Species; assay: Post-emergent Test II herbicidal activity (Table 5); format: in vivo; conditions: post-emergence, 336 h, 14 days after application; for pest or weed control at 70 g/ha: application rate 70 g ai/ha
Procedure, shortened: as §1

[3] = Triticum aestivum, TRZSS (wheat), read-out: Visual Growth Reduction (%) 14 Days After Application, TRZSS
[4] = CYPES: yellow nutsedge (Cyperus esculentus), read-out: Visual Growth Reduction (%) 14 Days After Application, CYPES
[5] = DIGSA: crabgrass (Digitaria sanguinalis), read-out: Visual Growth Reduction (%) 14 Days After Application, DIGSA
[6] = ECHCG: barnyardgrass (Echinochloa crus-galli), read-out: Visual Growth Reduction (%) 14 Days After Application, ECHCG
[7] = ORYSA: rice (Oryza sativa), read-out: Visual Growth Reduction (%) 14 Days After Application, ORYSA
[8] = SETFA: giant foxtail (Setaria faberi), read-out: Visual Growth Reduction (%) 14 Days After Application, SETFA
[9] = SORVU: grain sorghum (Sorghum vulgare), read-out: Visual Growth Reduction (%) 14 Days After Application, SORVU
[10] = ZEAMX: maize, corn (Zea mays), read-out: Visual Growth Reduction (%) 14 Days After Application, ZEAMX
[11] = ABUTH: velvetleaf (Abutilon theophrasti), 140 g ai/ha, post-emergent, read-out: Visual Growth Reduction (%) 14 Days After Application ABUTH
[12] = AMARE: redroot pigweed (Amaranthus retroflexus), 140 g ai/ha, post-emergent, read-out: Visual Growth Reduction (%) 14 Days After Application AMARE
[13] = BRSNN: oilseed-rape, canola (Brassica napus), 140 g ai/ha, post-emergent, read-out: Visual Growth Reduction (%) 14 Days After Application BRSNN
[14] = CHEAL: lambsquarters (Chenopodium album), 140 g ai/ha, post-emergent, read-out: Visual Growth Reduction (%) 14 Days After Application CHEAL
[15] = EPHHL: wild poinsettia (Euphorbia heterophylla), 140 g ai/ha, post-emergent, read-out: Visual Growth Reduction (%) 14 Days After Application EPHHL
[16] = HELAN: sunflower (Helianthus annuus), 140 g ai/ha, post-emergent, read-out: Visual Growth Reduction (%) 14 Days After Application HELAN
[17] = VIOTR: wild pansy (Viola tricolor), 140 g ai/ha, post-emergent, read-out: Visual Growth Reduction (%) 14 Days After Application VIOTR

COC(=O)c1nc(-c2ccc(Br)cc2)c(C)c(N)c1Cl [Compound 81, methyl 4-amino-6-(4-bromophenyl)-3-chloro-5-methylpicolinate]
0 to 29%: pest or weed control at 140 g/ha [1, 4] | pest or weed control at 140 g/ha [1, 6] | pest or weed control at 140 g/ha [1, 7] | pest or weed control at 140 g/ha [2, 17]
60 to 74%: pest or weed control at 140 g/ha [1, 8] | pest or weed control at 140 g/ha [2, 13]
45 to 59%: pest or weed control at 140 g/ha [1, 3] | pest or weed control at 140 g/ha [1, 5]
95 to 100%: pest or weed control at 140 g/ha [2, 11] | pest or weed control at 140 g/ha [2, 12] | pest or weed control at 140 g/ha [2, 14] | pest or weed control at 140 g/ha [2, 16]
75 to 84%: pest or weed control at 140 g/ha [1, 9] | pest or weed control at 140 g/ha [1, 10] | pest or weed control at 140 g/ha [2, 15]
128 to 130 °C: melting point

C#Cc1ccc(-c2nc(C(=O)O)c(Cl)c(N)c2Cl)cc1 [Compound 153]
60 to 74%: pest or weed control at 140 g/ha [1, 3] | pest or weed control at 140 g/ha [1, 10]
45 to 59%: pest or weed control at 140 g/ha [1, 4] | pest or weed control at 140 g/ha [1, 5]
95 to 100%: pest or weed control at 140 g/ha [2, 11] | pest or weed control at 140 g/ha [2, 12] | pest or weed control at 140 g/ha [2, 13] | pest or weed control at 140 g/ha [2, 14] | pest or weed control at 140 g/ha [2, 16]
0 to 29%: pest or weed control at 140 g/ha [1, 6] | pest or weed control at 140 g/ha [1, 7] | pest or weed control at 140 g/ha [1, 9] | pest or weed control at 140 g/ha [2, 15] | pest or weed control at 140 g/ha [2, 17]
75 to 84%: pest or weed control at 140 g/ha [1, 8]
160.9 to 162.6 °C: melting point

Nc1c(F)c(-c2ccc(OC(F)F)cc2F)nc(C(=O)O)c1Cl [Compound 140]
0 to 29%: pest or weed control at 70 g/ha [1, 3] | pest or weed control at 140 g/ha [1, 3] | pest or weed control at 70 g/ha [1, 4] | pest or weed control at 140 g/ha [1, 4] | pest or weed control at 70 g/ha [1, 5] | pest or weed control at 140 g/ha [1, 5] | pest or weed control at 70 g/ha [1, 7] | pest or weed control at 140 g/ha [1, 7] | pest or weed control at 70 g/ha [1, 9] | pest or weed control at 140 g/ha [1, 9] | pest or weed control at 70 g/ha [1, 10] | pest or weed control at 140 g/ha [1, 10] | pest or weed control at 70 g/ha ([2]; ABUTH: velvetleaf (Abutilon theophrasti), read-out: Visual Growth Reduction (%) 14 Days After Application, ABUTH) | pest or weed control at 140 g/ha ([2]; ABUTH: velvetleaf (Abutilon theophrasti), application rate 140 g ai/ha, read-out: Visual Growth Reduction (%) 14 Days After Application, ABUTH) | pest or weed control at 70 g/ha ([2]; AMARE: redroot pigweed (Amaranthus retroflexus), read-out: Visual Growth Reduction (%) 14 Days After Application, AMARE) | pest or weed control at 140 g/ha ([2]; AMARE: redroot pigweed (Amaranthus retroflexus), application rate 140 g ai/ha, read-out: Visual Growth Reduction (%) 14 Days After Application, AMARE) | pest or weed control at 70 g/ha ([2]; BRSNN: oilseed-rape, canola (Brassica napus), read-out: Visual Growth Reduction (%) 14 Days After Application, BRSNN) | pest or weed control at 140 g/ha ([2]; BRSNN: oilseed-rape, canola (Brassica napus), application rate 140 g ai/ha, read-out: Visual Growth Reduction (%) 14 Days After Application, BRSNN) | pest or weed control at 70 g/ha ([2]; CHEAL: lambsquarters (Chenopodium album), read-out: Visual Growth Reduction (%) 14 Days After Application, CHEAL) | pest or weed control at 140 g/ha ([2]; CHEAL: lambsquarters (Chenopodium album), application rate 140 g ai/ha, read-out: Visual Growth Reduction (%) 14 Days After Application, CHEAL) | pest or weed control at 70 g/ha ([2]; VIOTR: wild pansy (Viola tricolor), read-out: Visual Growth Reduction (%) 14 Days After Application, VIOTR) | pest or weed control at 140 g/ha ([2]; VIOTR: wild pansy (Viola tricolor), application rate 140 g ai/ha, read-out: Visual Growth Reduction (%) 14 Days After Application, VIOTR)
75 to 84%: pest or weed control at 140 g/ha ([2]; HELAN: sunflower (Helianthus annuus), application rate 140 g ai/ha, read-out: Visual Growth Reduction (%) 14 Days After Application, HELAN)
149 to 151 °C: melting point
60 to 74%: pest or weed control at 70 g/ha ([2]; HELAN: sunflower (Helianthus annuus), read-out: Visual Growth Reduction (%) 14 Days After Application, HELAN)
85 to 94%: pest or weed control at 70 g/ha ([2]; EPHHL: wild poinsettia (Euphorbia heterophylla), read-out: Visual Growth Reduction (%) 14 Days After Application, EPHHL) | pest or weed control at 140 g/ha ([2]; EPHHL: wild poinsettia (Euphorbia heterophylla), application rate 140 g ai/ha, read-out: Visual Growth Reduction (%) 14 Days After Application, EPHHL)
